The values that follow come from ChEMBL document CHEMBL2074429, “ATP-dependent primary active transport of cysteinyl leukotrienes across liver canalicular membrane. Role of the ATP-dependent transport system for glutathione S-conjugates” (J Biol Chem, 1990).

Holding throughout (format): functional, cell membranes, Plasma membrane vesicle
The target in series [1] is T1, ATP-binding cassette sub-family C member 2 (ABCC2) (Rattus norvegicus, UniProt Q63120). Briefly: TP_TRANSPORTER: inhibition of LTC4 uptake (LTC4: 0.01 uM, Vincristine: 100 uM) in liver plasma membrane vesicles of Wistar rat. To be noted: probe LTC4 (0.01 uM), read-out: Activity. Details: scale not given: the % may be the effect or the level left.
For series [2], the target named is T1, ATP-binding cassette sub-family C member 2 (ABCC2). Put plainly: TP_TRANSPORTER: inhibition of LTC4 uptake (LTC4: 0.01 uM, Vinblastine: 100 uM) in liver plasma membrane vesicles of Wistar rat. Details: scale not given: the % may be the effect or the level left. To be noted: probe LTC4 (0.01 uM), read-out: Activity.
In series [3] the target is ATP-binding cassette sub-family C member 2 (Rattus norvegicus, UniProt Q63120). Briefly: (§1) TP_TRANSPORTER: uptake in liver plasma membrane vesicles of Wistar rat.
Substrate in series [4]: CCCCC/C=C\C\C=C/C=C/C=C/[C@@H](SC[C@@H](NC(=O)CC[C@H](N)C(=O)O)C(=O)NCC(=O)O)[C@@H](O)CCCC(=O)O
The description is as §1.

Substrate in series [5]: CCCCC/C=C\C\C=C/C=C/C=C/[C@@H](SC[C@H](N)C(=O)NCC(=O)O)[C@@H](O)CCCC(=O)O
The series is described as §1.

Substrate in series [6]: CCCCC/C=C\C\C=C/C=C/C=C/[C@@H](SC[C@H](NC(C)=O)C(=O)O)[C@@H](O)CCCC(=O)O
Described as §1.

Take `CC[C@]1(O)C[C@H]2CN(CCc3c([nH]c4ccccc34)[C@@](C(=O)OC)(c3cc4c(cc3OC)N(C=O)[C@H]3[C@@](O)(C(=O)OC)[C@H](OC(C)=O)[C@]5(CC)C=CCN6CC[C@]43[C@@H]65)C2)C1` [VINCRISTINE]: in series [1], the activity at 100 µM came out at 42%.
With `CC[C@]1(O)C[C@@H]2CN(CCc3c([nH]c4ccccc34)[C@@](C(=O)OC)(c3cc4c(cc3OC)N(C)[C@H]3[C@@](O)(C(=O)OC)[C@H](OC(C)=O)[C@]5(CC)C=CCN6CC[C@]43[C@@H]65)C2)C1` [VINBLASTINE], the activity at 100 µM in series [2] amounted to 29%.
Turning to `CCCCC/C=C\C\C=C/C=C/C=C/[C@@H](SC[C@H](N)C(=O)O)[C@@H](O)CCCC(=O)O` [LEUKOTRIEN E4], the Activity entry in series [3] was “substrate [+]”.

B1: ATP-binding cassette sub-family C member 2 (Rattus norvegicus) (protein)
chain: MDKFCNSTFWDLSLLESPEADLPLCFEQTVLVWIPLGFLWLLAPWQLYSVYRSRTKRSSITKFYLAKQVFVVFLLILAAIDLSLALTEDTGQATVPPVRYTNPILYLCTWLLVLAVQHSRQWCVRKNSWFLSLFWILSVLCGVFQFQTLIRALLKDSKSNMAYSYLFFVSYGFQIVLLILTAFSGPSDSTQTPSVTASFLSSITFSWYDRTVLKGYKHPLTLEDVWDIDEGFKTRSVTSKFEAAMTKDLQKARQAFQRRLQKSQRKPEATLHGLNKKQSQSQDVLVLEEAKKKSEKTTKDYPKSWLIKSLFKTFHVVILKSFILKLIHDLLVFLNPQLLKLLIGFVKSSNSYVWFGYICAILMFAVTLIQSFCLQSYFQHCFVLGMCVRTTVMSSIYKKALTLSNLARKQYTIGETVNLMSVDSQKLMDATNYMQLVWSSVIQITLSIFFLWRELGPSILAGVGVMVLLIPVNGVLATKIRNIQVQNMKNKDKRLKIMNEILSGIKILKYFAWEPSFQEQVQGIRKKELKNLLRFGQLQSLLIFILQITPILVSVVTFSVYVLVDSANVLNAEKAFTSITLFNILRFPLSMLPMVTSSILQASVSVDRLERYLGGDDLDTSAIRRVSNFDKAVKFSEASFTWDPDLEATIQDVNLDIKPGQLVAVVGTVGSGKSSLVSAMLGEMENVHGHITIQGSTAYVPQQSWIQNGTIKDNILFGSEYNEKKYQQVLKACALLPDLEILPGGDMAEIGEKGINLSGGQKQRVSLARAAYQDADIYILDDPLSAVDAHVGKHIFNKVVGPNGLLAGKTRIFVTHGIHFLPQVDEIVVLGKGTILEKGSYRDLLDKKGVFARNWKTFMKHSGPEGEATVNNDSEAEDDDDGLIPTMEEIPEDAASLAMRRENSLRRTLSRSSRSSSRRGKSLKNSLKIKNVNVLKEKEKEVEGQKLIKKEFVETGKVKFSIYLKYLQAVGWWSILFIILFYGLNNVAFIGSNLWLSAWTSDSDNLNGTNNSSSHRDMRIGVFGALGLAQGICLLISTLWSIYACRNASKALHGQLLTNILRAPMRFFDTTPTGRIVNRFSGDISTVDDLLPQTLRSWMMCFFGIAGTLVMICMATPVFAIIIIPLSILYISVQVFYVATSRQLRRLDSVTKSPIYSHFSETVTGLPIIRAFEHQQRFLAWNEKQIDINQKCVFSWITSNRWLAIRLELVGNLVVFCSALLLVIYRKTLTGDVVGFVLSNALNITQTLNWLVRMTSEAETNIVAVERISEYINVENEAPWVTDKRPPADWPRHGEIQFNNYQVRYRPELDLVLKGITCNIKSGEKVGVVGRTGAGKSSLTNCLFRILESAGGQIIIDGIDVASIGLHDLRERLTIIPQDPILFSGSLRMNLDPFNKYSDEEVWRALELAHLRSFVSGLQLGLLSEVTEGGDNLSIGQRQLLCLGRAVLRKSKILVLDEATAAVDLETDSLIQTTIRKEFSQCTVITIAHRLHTIMDSDKIMVLDNGKIVEYGSPEELLSNRGSFYLMAKEAGIENVNHTEL
Turning to B1, the Km in series [4] came to 0.25 µM; in series [5] it was 1.5 µM; in series [6], 5.2 µM.

The term Km denotes the concentration of substrate that gives half-maximal velocity.
